Laboratory results as given in patent US8889874B2, “Imidazolone-chalcone derivatives as potential anticancer agent and process for the preparation thereof” (Council of Scientific and Industrial Research, priority 2010, dated 2014).
Like-named read-outs stand apart in the source and are kept apart here.

Assays:
Experiment in all cases: NCI anticancer screen, SRB assay, 48 h
Type in all cases: cell-based, human
[1] = test system: HOP-92 (non-small cell lung); details: Homo sapiens
How it was run: (§1)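 Sulforhodamine B protein assay read cell growth after 48 h of continuous compound exposure. Dose-response curves per cell line used at least five 10-fold-diluted concentrations, within a panel of fifty-three human lines from nine tumour types.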

[2] = test system: SK-OV-3 (ovarian); details: Homo sapiens
How it was run: as §1

[3] = test system: HCT-15 (colon); details: Homo sapiens
How it was run: as §1

[4] = test system: HT29 (colon); details: Homo sapiens
How it was run: as §1

[5] = test system: HOP-62 (non-small cell lung); details: Homo sapiens
How it was run: as §1

[6] = test system: TD-47D (breast); details: Homo sapiens
How it was run: as §1

[7] = test system: HS 578T (breast); details: Homo sapiens
How it was run: as §1

[8] = test system: OVCAR-5 (ovarian); details: Homo sapiens
How it was run: as §1

[9] = test system: ACHN (renal); details: Homo sapiens
How it was run: as §1

[10] = test system: OVCAR-3 (ovarian); details: Homo sapiens
How it was run: as §1

[11] = test system: BT-549 (breast); details: Homo sapiens
How it was run: as §1

[12] = test system: UACC-257 (melanoma); details: Homo sapiens
How it was run: as §1

[13] = test system: SNB-19 (CNS); details: Homo sapiens
How it was run: as §1

[14] = test system: M14 (melanoma); details: Homo sapiens
How it was run: as §1

[15] = test system: SF-539 (CNS); details: Homo sapiens
How it was run: as §1

[16] = test system: NCI/ADR-RES (ovarian); details: Homo sapiens, NCI/ADR-RES
How it was run: as §1

[17] = test system: COLO 205 (colon); details: Homo sapiens, COLO 205
How it was run: as §1

[18] = test system: CAKI-1 (renal); details: Homo sapiens
How it was run: as §1

[19] = test system: MALME-3M (melanoma); details: Homo sapiens
How it was run: as §1

[20] = test system: UACC-62 (melanoma); details: Homo sapiens
How it was run: as §1

[21] = test system: NCI-H226 (non-small cell lung); details: Homo sapiens
How it was run: as §1

[22] = test system: NCI-H460 (non-small cell lung); details: Homo sapiens
How it was run: as §1

[23] = test system: TK-10 (renal); details: Homo sapiens
How it was run: as §1

[24] = test system: SN12C (renal); details: Homo sapiens, SN12C
How it was run: as §1

[25] = test system: OVCAR-8 (ovarian); details: Homo sapiens
How it was run: as §1

[26] = test system: HCC-2998 (colon); details: Homo sapiens
How it was run: as §1

[27] = test system: SK-MEL-2 (melanoma); details: Homo sapiens
How it was run: as §1

[28] = test system: NCI-H522 (non-small cell lung); details: Homo sapiens
How it was run: as §1

[29] = test system: NCI-H23 (non-small cell lung); details: Homo sapiens
How it was run: as §1

[30] = test system: KM12 (colon); details: Homo sapiens
How it was run: as §1

[31] = test system: K-562 (leukemia cell line); details: Homo sapiens
How it was run: as §1

[32] = test system: LOX IMVI (melanoma); details: Homo sapiens
How it was run: as §1

[33] = test system: SNB-75 (CNS); details: Homo sapiens
How it was run: as §1

[34] = test system: SF-268 (CNS); details: Homo sapiens
How it was run: as §1

[35] = test system: MDA-MB-231/ATCC (breast); details: Homo sapiens
How it was run: as §1

[36] = test system: EKVX (non-small cell lung); details: Homo sapiens
How it was run: as §1

[37] = 48 h exposure, SRB, read-out: GI50
[38] = read-out: pGI50 (-log of molar concentration causing 50% inhibition of net cell growth) (converted)

O=C(/C=C/c1cccc(O)c1)c1cccc(-n2cc(-c3ccc(Cl)cc3)[nH]c2=O)c1 [4f, 4-(4-chlorophenyl)-1-3-[(E)-3-(3-hydroxyphenyl)-2-propenoyl]phenyl-2,3-dihydro-1H-2-imidazolone]
GI50 [1, 37]: 1600 nM
GI50 [1, 38]: 1580 nM
GI50 [2, 37]: 4210 nM
GI50 [2, 38]: 4170 nM
GI50 [3, 37]: 2330 nM
GI50 [3, 38]: 2340 nM
GI50 ([4]; HT-29, 48 h exposure, SRB, read-out: GI50): 1900 nM
GI50 ([4]; HT-29, read-out: pGI50 (-log of molar concentration causing 50% inhibition of net cell growth) (converted)): 1910 nM
GI50 [5, 37]: 2360 nM
GI50 [5, 38]: 2340 nM
GI50 [6, 37]: 1920 nM
GI50 [6, 38]: 1910 nM
GI50 [7, 37]: 4000 nM
GI50 [7, 38]: 3980 nM
GI50 [8, 37]: 2190 nM
GI50 [8, 38]: 2190 nM
GI50 [9, 37]: 1840 nM
GI50 [9, 38]: 1820 nM
GI50 [10, 37]: 1560 nM
GI50 [10, 38]: 1550 nM
GI50 [11, 37]: 1450 nM
GI50 [11, 38]: 1450 nM
GI50 [12, 37]: 4070 nM
GI50 [12, 38]: 4070 nM
GI50 [13, 37]: 1920 nM
GI50 [13, 38]: 1910 nM
GI50 [14, 37]: 2010 nM
GI50 [14, 38]: 2000 nM
GI50 [15, 37]: 1680 nM
GI50 [15, 38]: 1700 nM
GI50 ([16]; NCl/ADR-RES, 48 h exposure, SRB, read-out: GI50): 2200 nM
GI50 [16, 38]: 2190 nM
GI50 ([17]; COLO205, read-out: pGI50 (-log of molar concentration causing 50% inhibition of net cell growth) (converted)): 2290 nM
GI50 [17, 37]: 2290 nM
GI50 [18, 37]: 1720 nM
GI50 [18, 38]: 1740 nM
GI50 ([19]; Malme-3M, read-out: pGI50 (-log of molar concentration causing 50% inhibition of net cell growth) (converted)): 1820 nM
GI50 ([19]; MALME-3M, 48 h exposure, SRB, read-out: GI50): 1830 nM
GI50 [20, 37]: 1850 nM
GI50 [20, 38]: 1860 nM
GI50 [21, 37]: 2310 nM
GI50 [21, 38]: 2290 nM
GI50 [22, 37]: 2410 nM
GI50 [22, 38]: 2400 nM
GI50 [23, 37]: 2830 nM
GI50 [23, 38]: 2820 nM
GI50 ([24]; SN 12C, read-out: pGI50 (-log of molar concentration causing 50% inhibition of net cell growth) (converted)): 1950 nM
GI50 [24, 37]: 1950 nM
GI50 [25, 37]: 990 nM
GI50 [25, 38]: 1000 nM
GI50 [26, 37]: 13700 nM
GI50 [26, 38]: 13800 nM
GI50 [27, 37]: 2070 nM
GI50 [27, 38]: 2090 nM
GI50 [28, 37]: 1650 nM
GI50 [28, 38]: 1660 nM
GI50 [29, 37]: 2780 nM
GI50 [29, 38]: 2750 nM
GI50 [30, 37]: 1340 nM
GI50 [30, 38]: 1350 nM
GI50 ([31]; K562, 48 h exposure, SRB, read-out: GI50): 400 nM
GI50 ([31]; K562, read-out: pGI50 (-log of molar concentration causing 50% inhibition of net cell growth) (converted)): 398 nM
GI50 [32, 37]: 1570 nM
GI50 [32, 38]: 1580 nM
GI50 [33, 37]: 1460 nM
GI50 [33, 38]: 1450 nM
GI50 [34, 37]: 1780 nM
GI50 [34, 38]: 1780 nM
GI50 [35, 37]: 3350 nM
GI50 [35, 38]: 3390 nM
GI50 [36, 37]: 2400 nM
GI50 [36, 38]: 2400 nM
